# Results reported in patent US20260139004A1, “PEPTIDE HAVING ACTIVITIES OF PROMOTING HAIR GROWTH AND INHIBITING HAIR LOSS, AND USES THEREOF” (CAREGEN CO., LTD., priority 2022, published 2026).
# Columns and labels:
# Akt = test: Western blot of phospho-AKT in HHFDPCs; type: cell-based, human; conditions: peptide at 500 nM, 5 μM and 50 μM, 24 hours, FIG. 2
# Protocol: (§1) The effect of the peptide prepared in Preparation Example 1 above on the activation of proliferation-related signaling molecules in human hair follicle dermal papilla cells (HHFDPCs) was confirmed by Western blot method.
# (§2) HHFDPCs were seeded in a 6-well cell culture plate at a density of 4×10^5 cells/well and cultured for 24 hours under mesenchymal stem cell complete media conditions. Then, the medium was replaced with serum-free mesenchymal stem cell medium and cultured for additional 24 hours. The cultured cell culture was treated with the peptide prepared in Preparation Example 1 above at 500 nM, 5 μM, and 50 μM, respectively, 1 μM of Minoxidil (MNX) and 1 μM of VEGF were treated to serve as a positive control, and not treated with anything to serve as a negative control (con), and the cultures treated with these materials were cultured at 37° C. for additional 24 hours. After washing each culture with PBS, the cells were lysed by treatment with lysis buffer to obtain a cell lysate. Equal amounts of protein samples were prepared by BCA quantification of cell lysates. The prepared protein samples were subjected to electrophoresis using 10% SDS-PAGE. […] The resultant was washed 3 times for 15 minutes each with 0.1% PBS-T (0.1% Tween-20 in PBS), treated with ECL solution (GE Healthcare, USA), and detected with a film.
# LEF-1 = test: RT-PCR of LEF-1 gene expression in HHFDPCs; type: cell-based, human; conditions: peptide at 500 nM, 5 μM and 50 μM, 24 hours, FIG. 4
# Protocol: (§3) The effect of the peptide prepared in Preparation Example 1 above on the expression levels of lymphoid enhancer-binding factor 1 (LEF-1) and c-Myc, which are downstream genes of beta-catenin, in human hair follicle dermal papilla cells (HHFDPCs) was determined by the RT-PCR method.
# (§4) HHFDPCs were seeded in a 6-well cell culture plate at a density of 4×10^5 cells/well and cultured for 24 hours under mesenchymal stem cell complete media conditions. Then, the medium was replaced with serum free mesenchymal stem cell medium and cultured for additional 24 hours. The cultured cell culture was treated with the peptide prepared in Preparation Example 1 above at 500 nM, 5 μM, and 50 μM, respectively, and treated with 10 ng/mL of rhWnt-3a (recombinant human Wnt-3a protein, R&D systems (MN, USA) to serve as a positive control, and not treated with anything to serve as a negative control (con), and each was cultured at 37° C. for additional 24 hours. After washing each culture with PBS, RNA was isolated therefrom by treatment with 300 μL of eaay blue (Intron, South Korea). The isolated RNA was quantified using Nano drop, and then subjected to cDNA synthesis using a cDNA synthesis kit (Enzynomics, South Korea). […] The PCR reaction product was electrophoresed on a 1.5% agarose gel, and the bands were detected using the Bio-Rad Gel Image System.
# Ha3-II = test: RT-PCR of Ha3-II gene expression in HHORSCs; type: cell-based, human; conditions: peptide at 500 nM, 5 μM and 50 μM, 24 hours, FIG. 6
# Protocol: (§5) The effect of the peptide prepared in Preparation Example 1 above on the activation of human hair outer root sheath cells (HHORSCs) was confirmed by measuring the expression of cytokeratin proteins.
# (§6) HHORSCs were seeded in a 96-well cell culture plate at a density of 4×10^3 cells/well and cultured for 24 hours under mesenchymal stem cell complete media conditions. Then, the medium was replaced with serum free mesenchymal stem cell medium and cultured for additional 24 hours. The cultured cell culture was treated with 500 nM, 5 μM, and 50 μM of the peptide prepared in Preparation Example 1 above, respectively, and treated with 100 nM of epidermal growth factor (EGF) as a positive control, and negative when not treated with anything to serve as a negative control (con), and these cultures were cultured at 37° C. for 24 hours. After washing each culture with PBS, RNA was isolated by treatment with 300 μL of eaay blue (Intron, South Korea). The isolated RNA was quantified using Nano drop, and then subjected to cDNA synthesis using a cDNA synthesis kit (Enzynomics, South Korea). Then, a PCR reaction was performed using the primers shown in Table 3 below and a PCR premix (Enzynomics, South Korea). The PCR reaction product was electrophoresed on a 1.5% agarose gel, and the bands were detected using the Bio-Rad Gel Image System.
# c-Myc = test: RT-PCR of c-Myc gene expression in HHFDPCs; type: cell-based, human; conditions: peptide at 500 nM, 5 μM and 50 μM, 24 hours, FIG. 4
# Protocol: as §3, §4
# Keratin 14 = test: RT-PCR of Keratin 14 gene expression in HHORSCs; type: cell-based, human; conditions: peptide at 500 nM, 5 μM and 50 μM, 24 hours, FIG. 6
# Protocol: as §5, §6
# [1] = system: human hair follicle dermal papilla cells (HHFDPCs); test: Proliferation of human hair follicle dermal papilla cells (MTT); type: cell-based; conditions: peptide at 500 nM, 5 μM and 50 μM, 72 hours, absorbance 540 nm, FIG. 1
# Protocol: The effect of the peptide prepared in Preparation Example 1 above on the proliferation of human hair follicle dermal papilla cells (HHFDPCs) was tested.
# HHFDPCs were seeded in a 96-well cell culture plate at a density of 4×10^3 cells/well and cultured for 24 hours under mesenchymal stem cell complete media conditions. Then, the medium was replaced with serum-free mesenchymal stem cell medium and cultured for additional 24 hours. The cultured cell culture was treated with the peptide prepared in Preparation Example 1 above at 500 nM, 5 μM, and 50 μM, respectively, treated with 1 μM VEGF to serve as a positive control, and not treated with anything to serve as a negative control (con), and these cultures were cultured at 37° C. for additional 72 hours. Thereafter, 10 μL of MTT solution (5 mg/mL) was added thereto, and the mixture was incubated in a CO2 incubator at 37° C. for 4 hours, the medium was removed, and 100 μL of DMSO was added thereto and shaken for 10 minutes. Finally, the absorbance was measured at a wavelength of 540 nm using a spectrophotometer (Molecular Devices (SpectraMax iD3, CA, USA)).
# [2] = system: extracellular-regulated kinase (ERK); test: Western blot of phospho-ERK in HHFDPCs; type: cell-based, human; conditions: peptide at 500 nM, 5 μM and 50 μM, 24 hours, FIG. 2
# Protocol: as §1, §2
# beta-catenin = test: Western blot of nuclear beta-catenin in HHFDPCs; type: cell-based, human; conditions: peptide at 500 nM, 5 μM and 50 μM, 24 hours, nuclear protein Western blot, FIG. 3
# Protocol: The effect of the peptide prepared in Preparation Example 1 above on the activation of beta-catenin in human hair follicle dermal papilla cells (HHFDPCs) was confirmed by Western blot method.
# HHFDPCs were seeded in a 6-well cell culture plate at a density of 4×10^5 cells/well and cultured for 24 hours under mesenchymal stem cell complete media conditions. Then, the medium was replaced with serum-free mesenchymal stem cell medium and cultured for additional 24 hours. The cultured cell culture was treated with the peptide prepared in Preparation Example 1 above at 500 nM, 5 μM, and 50 μM, respectively, and treated with 10 ng/mL of rhWnt-3a (recombinant human Wnt-3a protein, R&D systems (MN, USA) to serve as a positive control, and not treated with anything to serve as a negative control (con). The cultures treated with these materials were incubated at 37° C. for additional 24 hours. After washing each culture with PBS, nuclear proteins were isolated using a nuclear protein extraction kit (Thermo scientific, USA), and an equal amount of protein sample was prepared by BCA quantification. The prepared protein samples were subjected to electrophoresis using 10% SDS-PAGE. […] The resultant was washed 3 times for 15 minutes each with 0.1% PBS-T (0.1% Tween-20 in PBS), treated with ECL solution (GE Healthcare, USA), and detected with a film.
# Keratin 5 = test: RT-PCR of Keratin 5 gene expression in HHORSCs; type: cell-based, human; conditions: peptide at 500 nM, 5 μM and 50 μM, 24 hours, FIG. 6
# Protocol: as §5, §6
# DKK-1 = test: Western blot of DHT-induced DKK-1 in HHFDPCs; type: cell-based, human; conditions: peptide at 500 nM, 5 μM and 50 μM with 100 nM DHT, 24 hours, FIG. 5
# Text: It is known that in hair follicles, dihydrotestosterone (DHT) promotes the expression of Dickkopf-1 (DKK-1), and DKK-1 induced by DHT inhibits the proliferation of keratinocytes in hair follicles and causes their apoptosis, thereby promoting hair loss (J of Invest Dermatolo. 2008, February, 128(2), pp. 262-269.). The effect of the peptide prepared in Preparation Example 1 above on the expression level of the hair loss-inducing protein DKK-1 in human hair follicle dermal papilla cells (HHFDPCs) was confirmed by Western blot method.
# HHFDPCs were seeded in a 6-well cell culture plate at a density of 4×10^5 cells/well and cultured for 24 hours under mesenchymal stem cell complete media conditions. Then, the medium was replaced with serum-free mesenchymal stem cell medium and cultured for additional 24 hours. The cultured cell culture was treated with 500 nM, 5 μM, and 50 μM of the peptide prepared in Preparation Example 1 above, respectively. treated with 5 μM of finasteride to serve as a positive control, and not treated with anything to serve as a negative control group (con). […] Equal amounts of protein samples were prepared by BCA quantification of cell lysates. […] The resultant was washed 3 times for 15 minutes each with 0.1% PBS-T (0.1% Tween-20 in PBS), treated with ECL solution (GE Healthcare, USA), and detected with a film.
# Keratin 19 = test: RT-PCR of Keratin 19 gene expression in HHORSCs; type: cell-based, human; conditions: peptide at 500 nM, 5 μM and 50 μM, 24 hours, FIG. 6
# Protocol: as §5, §6
sequence,measurement,setting,value
LKRYKHLV (Leu-Lys-Arg-Tyr-Lys-His-Leu-Val) [peptide of Preparation Example 1],phosphorylation of Akt,Akt,increased
same,gene expression of LEF-1,LEF-1,increased
same,gene expression of Ha3-II,Ha3-II,increasing
same,gene expression of c-Myc,c-Myc,increased
same,gene expression of Keratin 14,Keratin 14,increasing
same,proliferation of HHFDPC compared to the negative control (con),[1],promoted
same,phosphorylation of extracellular-regulated kinase (ERK),[2],increased
same,beta-catenin activation and movement to the nucleus,beta-catenin,increased
same,gene expression of Keratin 5,Keratin 5,increasing
same,expression of DKK-1 induced by DHT treatment,DKK-1,reduced in a concentration-dependent manner
same,gene expression of Keratin 19,Keratin 19,increasing
